US9540354B2, “Diamide inhibitors of cytochrome P450” (SEQUOIA PHARMACEUTICALS, INC., priority 2008, dated 2017)

melting point: 85.5 to 86 °C
SMILES: Cc1cc(CC(C(=O)NCc2ccc3occc3c2)C(=O)N(CC(C)C)CC(C)C)n(C)n1 (stereo not shown) [Cmpd. 9]
